Laboratory results reported in patent publication US20120294879A1, “CONSENSUS SEQUENCE FOR INFLUENZA A VIRUS” (priority 2009, published 2012).
Entries after “also recorded” stand apart in the source; their conditions may differ. Where two headings read alike, the source gives them in different places.

How the values were obtained:
[1] = system: splenocytes of HLA-A24 (A*2402) transgenic mice; format: cell-based; parameters: key to A24: average IFN-γ spots forming cells per million splenocytes: — represents no positive ELISpot response
[2] = system: splenocytes of HLA-B7 (B*0702) transgenic mice; format: cell-based; parameters: key to B7: average IFN-γ spots forming cells per million splenocytes: — represents no positive ELISpot response
[3] = system: splenocytes of HLA-DR2 (DRB1*1501) transgenic mice; format: cell-based; parameters: key to DR2: average IFN-γ spots forming cells per million splenocytes: — represents no positive ELISpot response
[4] = system: splenocytes of HLA-DR3 (DRB1*0301) transgenic mice; format: cell-based; parameters: key to DR3: average IFN-γ spots forming cells per million splenocytes: — represents no positive ELISpot response
[5] = system: splenocytes of HLA-DR4 (DRB1*0401) transgenic mice; format: cell-based; parameters: key: — represents no positive ELISpot response
[6] = system: HLA-A2, -A24, -B7, -DR2, -DR3 and -DR4 transgenic mice; format: cell-based; parameters: key to HLA allele this work (HLA restriction by ELISpot): —represents no positive ELISpot response
HLA alleles = details: epitopes extracted from the IEDB, humans infected with influenza A, cited from earlier work

ERRNKYLEEHPSAGKDP
A24: average IFN-γ spots forming cells per million splenocytes [1]: — | B7: average IFN-γ spots forming cells per million splenocytes [2]: — | DR2: average IFN-γ spots forming cells per million splenocytes [3]: — | DR3: average IFN-γ spots forming cells per million splenocytes [4]: — | DR4: average IFN-γ spots forming cells per million splenocytes [5]: 121 ± 1(0.1) IFN-γ spots forming cells per million splenocytes | HLA allele this work (HLA restriction by ELISpot) [6]: DR4 | Published HLA alleles (reported human T cell epitopes) (HLA alleles): DR1, DRB1*0101

HENRMVLASTTAKAMEQ
A24: average IFN-γ spots forming cells per million splenocytes [1]: — | B7: average IFN-γ spots forming cells per million splenocytes [2]: — | DR2: average IFN-γ spots forming cells per million splenocytes [3]: — | DR3: average IFN-γ spots forming cells per million splenocytes [4]: — | DR4: average IFN-γ spots forming cells per million splenocytes [5]: 165 ± 1(0.1) IFN-γ spots forming cells per million splenocytes | HLA allele this work (HLA restriction by ELISpot) [6]: DR4 | Published HLA alleles (reported human T cell epitopes) (HLA alleles): A3, A11, DRB1*0701

NQPEWFRNILSIAPIMF
A24: average IFN-γ spots forming cells per million splenocytes [1]: — | B7: average IFN-γ spots forming cells per million splenocytes [2]: 60 ± 8 IFN-γ spots forming cells per million splenocytes | B7: lowest concentration of peptide giving positive ELISpot response in peptide titration [2]: (10) μg/ml | DR2: average IFN-γ spots forming cells per million splenocytes [3]: — | DR3: average IFN-γ spots forming cells per million splenocytes [4]: — | DR4: average IFN-γ spots forming cells per million splenocytes [5]: — | lowest peptide concentration giving positive IFN-γ ELISpot response (apparent functional avidity) [6]: solely at the highest peptide concentration

NTYQWIIRNWETVKIQW
A24: average IFN-γ spots forming cells per million splenocytes [1]: 322 ± 44 IFN-γ spots forming cells per million splenocytes | A24: lowest concentration of peptide giving positive ELISpot response in peptide titration [1]: (0.1) μg/ml | B7: average IFN-γ spots forming cells per million splenocytes [2]: — | DR2: average IFN-γ spots forming cells per million splenocytes [3]: 96 ± 9(0.1) IFN-γ spots forming cells per million splenocytes | DR2: lowest concentration of peptide giving positive ELISpot response in peptide titration [3]: 96 ± 9(0.1) μg/ml | DR3: average IFN-γ spots forming cells per million splenocytes [4]: — | DR4: average IFN-γ spots forming cells per million splenocytes [5]: — | HLA allele this work (HLA restriction by ELISpot) [6]: both HLA class I and II alleles

RCHRGDTQIQTRRSFEI
A24: average IFN-γ spots forming cells per million splenocytes [1]: — | B7: average IFN-γ spots forming cells per million splenocytes [2]: — | DR2: average IFN-γ spots forming cells per million splenocytes [3]: 194 ± 47(0.1) IFN-γ spots forming cells per million splenocytes | DR2: lowest concentration of peptide giving positive ELISpot response in peptide titration [3]: 194 ± 47(0.1) μg/ml | DR3: average IFN-γ spots forming cells per million splenocytes [4]: — | DR4: average IFN-γ spots forming cells per million splenocytes [5]: — | HLA allele this work (HLA restriction by ELISpot) [6]: DR2

RGILEDEQMYQRCCNLF
A24: average IFN-γ spots forming cells per million splenocytes [1]: 78 ± 4 IFN-γ spots forming cells per million splenocytes | A24: lowest concentration of peptide giving positive ELISpot response in peptide titration [1]: (0.1) μg/ml | B7: average IFN-γ spots forming cells per million splenocytes [2]: — | DR2: average IFN-γ spots forming cells per million splenocytes [3]: — | DR3: average IFN-γ spots forming cells per million splenocytes [4]: 181 ± 10(0.1) IFN-γ spots forming cells per million splenocytes | DR3: lowest concentration of peptide giving positive ELISpot response in peptide titration [4]: 181 ± 10(0.1) μg/ml | DR4: average IFN-γ spots forming cells per million splenocytes [5]: — | HLA allele this work (HLA restriction by ELISpot) [6]: both HLA class I and II alleles

RMVLASTTAK [reference compound]
Published HLA alleles (reported human T cell epitopes) (HLA alleles): HLA-A3 and -A11

SAGQISTQPTFSVQRNL
A24: average IFN-γ spots forming cells per million splenocytes [1]: — | B7: average IFN-γ spots forming cells per million splenocytes [2]: — | DR2: average IFN-γ spots forming cells per million splenocytes [3]: 207 ± 3(0.1) IFN-γ spots forming cells per million splenocytes | DR2: lowest concentration of peptide giving positive ELISpot response in peptide titration [3]: 207 ± 3(0.1) μg/ml | DR3: average IFN-γ spots forming cells per million splenocytes [4]: — | DR4: average IFN-γ spots forming cells per million splenocytes [5]: — | HLA allele this work (HLA restriction by ELISpot) [6]: DR2 | Published HLA alleles (reported human T cell epitopes) (HLA alleles; listed as NP 402-418): DRB1*0101,; also recorded: DRB1*0404

TNPLIRHENRMVLASTT
A24: average IFN-γ spots forming cells per million splenocytes [1]: — | B7: average IFN-γ spots forming cells per million splenocytes [2]: — | DR2: average IFN-γ spots forming cells per million splenocytes [3]: 56 ± 5(0.1) IFN-γ spots forming cells per million splenocytes | DR2: lowest concentration of peptide giving positive ELISpot response in peptide titration [3]: 56 ± 5(0.1) μg/ml | DR3: average IFN-γ spots forming cells per million splenocytes [4]: 120 ± 4(0.1) IFN-γ spots forming cells per million splenocytes | DR3: lowest concentration of peptide giving positive ELISpot response in peptide titration [4]: 120 ± 4(0.1) μg/ml | DR4: average IFN-γ spots forming cells per million splenocytes [5]: — | HLA allele this work (HLA restriction by ELISpot) [6]: DR2, DR3 | Published HLA alleles (reported human T cell epitopes) (HLA alleles; listed as M1 169-185): B39, DR2, DRB1*0103,; also recorded: DRB1*1101,; also recorded: DRB1*0701, DRB5*0101

TQPTFSVQRNLPFDKTT
A24: average IFN-γ spots forming cells per million splenocytes [1]: — | B7: average IFN-γ spots forming cells per million splenocytes [2]: — | DR2: average IFN-γ spots forming cells per million splenocytes [3]: 110 ± 14(1) IFN-γ spots forming cells per million splenocytes | DR2: lowest concentration of peptide giving positive ELISpot response in peptide titration [3]: 110 ± 14(1) μg/ml | DR3: average IFN-γ spots forming cells per million splenocytes [4]: 41 ± 2(10) IFN-γ spots forming cells per million splenocytes | DR3: lowest concentration of peptide giving positive ELISpot response in peptide titration [4]: 41 ± 2(10) μg/ml | DR4: average IFN-γ spots forming cells per million splenocytes [5]: — | lowest peptide concentration giving positive IFN-γ ELISpot response (apparent functional avidity) [6]: solely at the highest peptide concentration

VLSAFDERRNKYLEEHP
HLA allele this work (HLA restriction by ELISpot) [6]: — | Published HLA alleles (reported human T cell epitopes) (HLA alleles): DRB1*0101

VLYDKEEIRRIWRQANN
A24: average IFN-γ spots forming cells per million splenocytes [1]: — | B7: average IFN-γ spots forming cells per million splenocytes [2]: — | DR2: average IFN-γ spots forming cells per million splenocytes [3]: — | DR3: average IFN-γ spots forming cells per million splenocytes [4]: 501 ± 42(0.1) IFN-γ spots forming cells per million splenocytes | DR3: lowest concentration of peptide giving positive ELISpot response in peptide titration [4]: 501 ± 42(0.1) μg/ml | DR4: average IFN-γ spots forming cells per million splenocytes [5]: — | HLA allele this work (HLA restriction by ELISpot) [6]: DR3 | Published HLA alleles (reported human T cell epitopes) (HLA alleles): DRB1*1101
